Measurements taken from article PMC9276676, “Difluoromethylornithine (DFMO) and AMXT 1501 inhibit capsule biosynthesis in pneumococci” (Scientific Reports, 2022).

Legend:
Assay in all cases: DFMO susceptibility and growth in THY (OD600, MIC)
Assay type in all cases: cell-based, Streptococcus pneumoniae
Set-up in all cases: Growthrate: unit not given here
[1] = tested on: S. pneumoniae serotype 19F (EF3030)
Description: (§1) S. pneumoniae serotypes 4 (TIGR4), 2 (D39), 19F (EF3030) and 3 (WU2) were cultured in Todd Hewitt broth supplemented with yeast extract (THY). Supplementation with DFMO ranging from 1.1 to 549 mM was carried out in triplicate in a 96-well plate and incubated at 37 °C and 5% CO2 in a Cytation™ 5 cell imaging multi-mode reader (BioTek, Winooski, VT). The change in optical density at 600 nm (OD600) was measured every hour for 24 h and used to determine the minimum inhibitory concentration (MIC) of DFMO. The optical density data was analyzed using GrowthRates 4.0 software. To determine whether DFMO at sub-MIC is bacteriostatic or lethal to pneumococcal cells, all strains were cultured in the presence or absence of 1/2 MIC DFMO. OD600 was measured every hour and CFU were enumerated on a blood agar plate (BAP) every 2 h over an 8 h incubation period.

[2] = tested on: S. pneumoniae serotype 2 (D39); details: D39
Description: as §1

[3] = tested on: S. pneumoniae serotype 3 (WU2)
Description: as §1

[4] = tested on: S. pneumoniae serotype 4 (TIGR4)
Description: as §1

NCCC[C@](N)(C(=O)O)C(F)F [DFMO, α-difluoromethylornithine]
difference in growth rate in presence or absence of DFMO (GrowthRates software) [1]: did not identify any significant differences
Growthrate ([1]; DFMO 0.2 µg/µL): 0.035
Max OD ([1]; DFMO 0.2 µg/µL): 1.413
Growthrate ([1]; DFMO 0.4 µg/µL): 0.021
Max OD ([1]; DFMO 0.4 µg/µL): 1.458
Growthrate ([1]; DFMO 0.8 µg/µL): 0.037
Max OD ([1]; DFMO 0.8 µg/µL): 1.485
Growthrate ([1]; DFMO 1.6 µg/µL): 0.037
Max OD ([1]; DFMO 1.6 µg/µL): 1.495
Growthrate ([1]; DFMO 3.1 µg/µL): 0.036
Max OD ([1]; DFMO 3.1 µg/µL): 1.517
Growthrate ([1]; DFMO 6.3 µg/µL): 0.035
Max OD ([1]; DFMO 6.3 µg/µL): 1.538
Growthrate ([1]; DFMO 12.5 µg/µL): 0.030
Max OD ([1]; DFMO 12.5 µg/µL): 1.513
Growthrate ([1]; DFMO 25.0 µg/µL): 0.040
Max OD ([1]; DFMO 25.0 µg/µL): 1.319
Growthrate ([1]; DFMO 50.0 µg/µL): 0.000
Max OD ([1]; DFMO 50.0 µg/µL): 0.000
Growthrate ([1]; DFMO 100.0 µg/µL): 0.000
Max OD ([1]; DFMO 100.0 µg/µL): 0.000
difference in growth rate in presence or absence of DFMO (GrowthRates software) [2]: did not identify any significant differences
growth curve versus control ([2]; 1/2 MIC DFMO (137 mM)): longer lag phase and a lower maximal O.D
Growthrate ([2]; DFMO 0.2 µg/µL): 0.025
Max OD ([2]; DFMO 0.2 µg/µL): 1.555
Growthrate ([2]; DFMO 0.4 µg/µL): 0.019
Max OD ([2]; DFMO 0.4 µg/µL): 1.573
Growthrate ([2]; DFMO 0.8 µg/µL): 0.018
Max OD ([2]; DFMO 0.8 µg/µL): 1.615
Growthrate ([2]; DFMO 1.6 µg/µL): 0.040
Max OD ([2]; DFMO 1.6 µg/µL): 1.648
Growthrate ([2]; DFMO 3.1 µg/µL): 0.039
Max OD ([2]; DFMO 3.1 µg/µL): 1.642
Growthrate ([2]; DFMO 6.3 µg/µL): 0.037
Max OD ([2]; DFMO 6.3 µg/µL): 1.647
Growthrate ([2]; DFMO 12.5 µg/µL): 0.036
Max OD ([2]; DFMO 12.5 µg/µL): 1.613
Growthrate ([2]; DFMO 25.0 µg/µL): 0.029
Max OD ([2]; DFMO 25.0 µg/µL): 0.985
Growthrate ([2]; DFMO 50.0 µg/µL): 0.000
Max OD ([2]; DFMO 50.0 µg/µL): 0.000
Growthrate ([2]; DFMO 100.0 µg/µL): 0.000
Max OD ([2]; DFMO 100.0 µg/µL): 0.000
difference in growth rate in presence or absence of DFMO (GrowthRates software) [3]: did not identify any significant differences
growth curve versus control ([3]; 1/2 MIC DFMO (137 mM)): longer lag phase and a lower maximal O.D
Growthrate ([3]; DFMO 0.2 µg/µL): 0.046
Max OD ([3]; DFMO 0.2 µg/µL): 0.497
Growthrate ([3]; DFMO 0.4 µg/µL): 0.047
Max OD ([3]; DFMO 0.4 µg/µL): 0.509
Growthrate ([3]; DFMO 0.8 µg/µL): 0.047
Max OD ([3]; DFMO 0.8 µg/µL): 0.548
Growthrate ([3]; DFMO 1.6 µg/µL): 0.046
Max OD ([3]; DFMO 1.6 µg/µL): 0.575
Growthrate ([3]; DFMO 3.1 µg/µL): 0.050
Max OD ([3]; DFMO 3.1 µg/µL): 0.650
Growthrate ([3]; DFMO 6.3 µg/µL): 0.048
Max OD ([3]; DFMO 6.3 µg/µL): 0.652
Growthrate ([3]; DFMO 12.5 µg/µL): 0.048
Max OD ([3]; DFMO 12.5 µg/µL): 0.696
Growthrate ([3]; DFMO 25.0 µg/µL): 0.046
Max OD ([3]; DFMO 25.0 µg/µL): 0.303
Growthrate ([3]; DFMO 50.0 µg/µL): 0.000
Growthrate ([3]; DFMO 100.0 µg/µL): 0.000
difference in growth rate in presence or absence of DFMO (GrowthRates software) [4]: did not identify any significant differences
Growthrate ([4]; DFMO 0.2 µg/µL): 0.055
Max OD ([4]; DFMO 0.2 µg/µL): 1.583
Growthrate ([4]; DFMO 0.4 µg/µL): 0.056
Max OD ([4]; DFMO 0.4 µg/µL): 1.619
Growthrate ([4]; DFMO 0.8 µg/µL): 0.056
Max OD ([4]; DFMO 0.8 µg/µL): 1.657
Growthrate ([4]; DFMO 1.6 µg/µL): 0.057
Max OD ([4]; DFMO 1.6 µg/µL): 1.695
Growthrate ([4]; DFMO 3.1 µg/µL): 0.056
Max OD ([4]; DFMO 3.1 µg/µL): 1.654
Growthrate ([4]; DFMO 6.3 µg/µL): 0.055
Max OD ([4]; DFMO 6.3 µg/µL): 1.635
Growthrate ([4]; DFMO 12.5 µg/µL): 0.056
Max OD ([4]; DFMO 12.5 µg/µL): 1.560
Growthrate ([4]; DFMO 25.0 µg/µL): 0.052
Max OD ([4]; DFMO 25.0 µg/µL): 1.280
Growthrate ([4]; DFMO 50.0 µg/µL): 0.000
Max OD ([4]; DFMO 50.0 µg/µL): 0.000
Growthrate ([4]; DFMO 100.0 µg/µL): 0.000
Max OD ([4]; DFMO 100.0 µg/µL): 0.000
